Data published in the supplement of paper PMC11208160.

Test: recombinant UMI read abundance after kanamycin selection (control-corrected) (log10(CPM+1)); higher = more efficient recombination; extreme values may be limits of the assay; sequences stand for … in AGTGCAGAGAAAATCGGCCAGTTTTCTCTGCCTGCAGTCCGCATGCCGTGGGACCCCTTGGGTTCTAACCTGTTGCCTAGATTTATGCAGCGGACTGCCTTTCTCCCAAAGTGATAAACCGG…AGGTTGGTTTCACT; site = the 11-nt donor
Outline: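 For the IS621 bridge recombinase, a pooled Escherichia coli screen tested donor and donor-binding-loop pairs. Cells received the pair library together with a target plasmid encoding a fixed target and T7-inducible recombinase, then went onto IPTG (0.07 mM) plus kanamycin or unselected plates in duplicate. After PCR across the donor–target junction and sequencing, recombinant UMI counts were normalized to CPM, averaged, and scaled by control-derived factors. Each value is given as log10(CPM+1).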
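Also: IS621 bridge recombinase in Escherichia coli cells against a fixed T5 target plasmid.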

Compared with “TAGATGACATGGACCGGTTTTCCCGGTAATCCGTATTTGCT (site TAGATGACTAG)”, “TAGATTACATGGACCGGTTTTCCCGGTAATCCGTATTTGCA (site TAGAATACTTG)” is lower in “recombinant UMI read abundance (log10)” value: 2.49 for the first, 0.304 for the second.

Going from “TAGATTACATGGACCGGTTTTCCCGGTAATCCGTATTTGCA (site TAGACTACTTG)” to “TAGATTACATGGACCGGTTTTCCCGGTAATCCGTATTTGCA (site TAGAGTACTTG)”, the “recombinant UMI read abundance (log10)” value falls from 0.98 to 0.616.

Going from “TAGATTACATGGACCGGTTTTCCCGGTAATCCGTATTTGCA (site TAGATTACTTG)” to “TAGCCCACATGGACCGGTTTTCCCGGTAATCCGTATTTGTT (site TAGCCCACTAA)”, the “recombinant UMI read abundance (log10)” value falls from 1.52 to 0.409.

“TAGCCGGCATGGACCGGTTTTCCCGGTAATCCGTATTTGTA (site TAGCCGGCTTA)” and “TAGCTGGCATGGACCGGTTTTCCCGGTAATCCGTATTTGAA (site TAGCTAGCTTT)” are within 0.2 log units of each other in “recombinant UMI read abundance (log10)” value: 0.599 for the first, 0.588 for the second.

First: TAGCTGGCATGGACCGGTTTTCCCGGTAATCCGTATTTGAA (site TAGCTCGCTTT)
Second: TAGCTGGCATGGACCGGTTTTCCCGGTAATCCGTATTTGAA (site TAGCTGGCTTT)
The “recombinant UMI read abundance (log10)” value of the first is lower: 0.0161 for the first, 0.732 for the second.

First: TAGCTGGCATGGACCGGTTTTCCCGGTAATCCGTATTTGAA (site TAGCTTGCTTT)
Second: TAGCTTACATGGACCGGTTTTCCCGGTAATCCGTATTTGTC (site TAGCTTACTGA)
The “recombinant UMI read abundance (log10)” value of the first is lower: 0 for the first, 1.56 for the second.

“TAGCTTCCATGGACCGGTTTTCCCGGTAATCCGTATTTGGG (site TAGCTTCCTCC)” and “TAGCTTGCATGGACCGGTTTTCCCGGTAATCCGTATTTGAA (site TAGCTAGCTTT)” are within 0.2 log units of each other in “recombinant UMI read abundance (log10)” value: 0.0588 for the first, 0.0193 for the second.

“TAGCTTGCATGGACCGGTTTTCCCGGTAATCCGTATTTGAA (site TAGCTCGCTTT)” and “TAGCTTGCATGGACCGGTTTTCCCGGTAATCCGTATTTGAA (site TAGCTGGCTTT)” are within 0.2 log units of each other in “recombinant UMI read abundance (log10)” value: 0.0167 for the first, 0.02 for the second.

First: TAGCTTGCATGGACCGGTTTTCCCGGTAATCCGTATTTGAA (site TAGCTTGCTTT)
Second: TAGCTTTCATGGACCGGTTTTCCCGGTAATCCGTATTTGGT (site TAGCATTCTAC)
The “recombinant UMI read abundance (log10)” value of the first is higher: 1.4 for the first, 0.374 for the second.

“TAGCTTTCATGGACCGGTTTTCCCGGTAATCCGTATTTGGT (site TAGCCTTCTAC)” and “TAGCTTTCATGGACCGGTTTTCCCGGTAATCCGTATTTGGT (site TAGCGTTCTAC)” are within 0.2 log units of each other in “recombinant UMI read abundance (log10)” value: 0.157 for the first, 0 for the second.

Going from “TAGCTTTCATGGACCGGTTTTCCCGGTAATCCGTATTTGGT (site TAGCTTTCTAC)” to “TAGGAAACATGGACCGGTTTTCCCGGTAATCCGTATTTGCG (site TAGGAAACTCG)”, the “recombinant UMI read abundance (log10)” value rises from 0.807 to 2.39.

Going from “TAGGAAACATGGACCGGTTTTCCCGGTAATCCGTATTTGCG (site TAGGAACCTCG)” to “TAGGAAACATGGACCGGTTTTCCCGGTAATCCGTATTTGCG (site TAGGAAGCTCG)”, the “recombinant UMI read abundance (log10)” value rises from 0 to 2.11.

Compared with “TAGGAAACATGGACCGGTTTTCCCGGTAATCCGTATTTGCG (site TAGGAATCTCG)”, “TAGGCTGCATGGACCGGTTTTCCCGGTAATCCGTATTTGGT (site TAGGCTGCTAC)” is lower in “recombinant UMI read abundance (log10)” value: 1.75 for the first, 0.811 for the second.

First: TAGGGATCATGGACCGGTTTTCCCGGTAATCCGTATTTGCG (site TAGGAATCTCG)
Second: TAGGGATCATGGACCGGTTTTCCCGGTAATCCGTATTTGCG (site TAGGCATCTCG)
The “recombinant UMI read abundance (log10)” value of the first is higher: 2.07 for the first, 0.735 for the second.

Going from “TAGGGATCATGGACCGGTTTTCCCGGTAATCCGTATTTGCG (site TAGGGATCTCG)” to “TAGGGATCATGGACCGGTTTTCCCGGTAATCCGTATTTGCG (site TAGGTATCTCG)”, the “recombinant UMI read abundance (log10)” value falls from 2.78 to 1.27.

Compared with “TAGGGATCATGGACCGGTTTTCCCGGTAATCCGTATTTGCT (site TAGGGATCTAG)”, “TAGGGGACATGGACCGGTTTTCCCGGTAATCCGTATTTGTT (site TAGGGGACTAA)” is lower in “recombinant UMI read abundance (log10)” value: 2.31 for the first, 1.75 for the second.

“TAGGGTGCATGGACCGGTTTTCCCGGTAATCCGTATTTGAC (site TAGGGTGCTGT)” and “TAGGGTGCATGGACCGGTTTTCCCGGTAATCCGTATTTGCC (site TAGGGTGCTGG)” are within 0.2 log units of each other in “recombinant UMI read abundance (log10)” value: 2.6 for the first, 2.58 for the second.

Compared with “TAGGTTACATGGACCGGTTTTCCCGGTAATCCGTATTTGAT (site TAGGTTACTAT)”, “TAGGTTGCATGGACCGGTTTTCCCGGTAATCCGTATTTGGT (site TAGGTTGCTAC)” is lower in “recombinant UMI read abundance (log10)” value: 1.79 for the first, 1.27 for the second.

First: TAGTCTTCATGGACCGGTTTTCCCGGTAATCCGTATTTGGT (site TAGACTTCTAC)
Second: TAGTCTTCATGGACCGGTTTTCCCGGTAATCCGTATTTGGT (site TAGCCTTCTAC)
The “recombinant UMI read abundance (log10)” value of the first is lower: 0.017 for the first, 0.322 for the second.

First: TAGTCTTCATGGACCGGTTTTCCCGGTAATCCGTATTTGGT (site TAGGCTTCTAC)
Second: TAGTCTTCATGGACCGGTTTTCCCGGTAATCCGTATTTGGT (site TAGTCTTCTAC)
The “recombinant UMI read abundance (log10)” value of the first is lower: 0.012 for the first, 0.376 for the second.

Going from “TAGTGTACATGGACCGGTTTTCCCGGTAATCCGTATTTGGT (site TAGTGTACTAC)” to “TAGTTGACATGGACCGGTTTTCCCGGTAATCCGTATTTGCT (site TAATTGACTAG)”, the “recombinant UMI read abundance (log10)” value rises from 0.534 to 1.17.

First: TAGTTGACATGGACCGGTTTTCCCGGTAATCCGTATTTGCT (site TACTTGACTAG)
Second: TAGTTGACATGGACCGGTTTTCCCGGTAATCCGTATTTGCT (site TAGTTGACTAG)
The “recombinant UMI read abundance (log10)” value of the first is lower: 0.55 for the first, 2.13 for the second.

First: TAGTTGACATGGACCGGTTTTCCCGGTAATCCGTATTTGCT (site TATTTGACTAG)
Second: TATAAGACATGGACCGGTTTTCCCGGTAATCCGTATTTGAC (site TATAAGACTGT)
The “recombinant UMI read abundance (log10)” value of the first is lower: 0.0101 for the first, 2.01 for the second.

“TATAATTCATGGACCGGTTTTCCCGGTAATCCGTATTTGAC (site TATAATTCTGT)” and “TATAGCCCATGGACCGGTTTTCCCGGTAATCCGTATTTGTA (site TATAGCCCTTA)” are within 0.2 log units of each other in “recombinant UMI read abundance (log10)” value: 0.209 for the first, 0.181 for the second.

Going from “TATAGCGCATGGACCGGTTTTCCCGGTAATCCGTATTTGTG (site TATAGCGCTCA)” to “TATAGGACATGGACCGGTTTTCCCGGTAATCCGTATTTGAT (site TATAGGACTAT)”, the “recombinant UMI read abundance (log10)” value rises from 0.205 to 1.11.

Going from “TATATGGCATGGACCGGTTTTCCCGGTAATCCGTATTTGTG (site TATATGGCTCA)” to “TATATGGCATGGACCGGTTTTCCCGGTAATCCGTATTTGTG (site TATCTGGCTCA)”, the “recombinant UMI read abundance (log10)” value falls from 0.368 to 0.00271.

“TATATGGCATGGACCGGTTTTCCCGGTAATCCGTATTTGTG (site TATGTGGCTCA)” and “TATATGGCATGGACCGGTTTTCCCGGTAATCCGTATTTGTG (site TATTTGGCTCA)” are within 0.2 log units of each other in “recombinant UMI read abundance (log10)” value: 0.00727 for the first, 0.0941 for the second.

Compared with “TATATTGCATGGACCGGTTTTCCCGGTAATCCGTATTTGTC (site TATATTGCTGA)”, “TATCCCGCATGGACCGGTTTTCCCGGTAATCCGTATTTGCC (site TATCCCGCTGG)” is higher in “recombinant UMI read abundance (log10)” value: 0 for the first, 1.79 for the second.

In the case of “TATCCTGCATGGACCGGTTTTCCCGGTAATCCGTATTTGAC (site TATCCTGCTGT)”, the “recombinant UMI read abundance (log10)” value is reported as 0.
